The target in test [1] is Syk kinase (Homo sapiens, UniProt P43405). As to the kind of experiment: Syk kinase enzymatic assay (Kit-Tyr 2 Peptide). As to conditions: 8 concentrations, 1 μM down to 0.0003 μM; upper bound of each range is 'less than'; read-out: IC50: Enzymatic Activity (Syk kinase). The test is classed as biochemical.
Test [2] relates to RBL-2H3 cells. As to the kind of experiment: IgE-induced Beta-hexosaminidase secretion in RBL-2H3 cells. The test is classed as cell-based. The following applies: Rattus norvegicus, RBL-2H3, RBL-2H3 cells sensitized with SPE-7, stimulated with DNP-BSA; upper bound of each range is 'less than'; read-out: IC50, IgE-induced Beta-hexosaminidase secretion.

Drawing on patent US10052330B2, “Substituted pyrido[3,4-b]pyrazines as Syk inhibitors” (HUTCHISON MEDIPHARMA LIMITED, priority 2011, dated 2018), this text covers IC50 for 52 compounds.

For the compound `CC(C)(O)CN1CCN(c2ccc(-c3cc4nccnc4c(NCC4CNCCO4)n3)cc2)CC1` (centres unmarked) [Compound 217], the IC50 in test [1] and in test [2] was 1 to 100 nM throughout.

For the compound `CC1CN(c2ccc(-c3cc4nccnc4c(NCC4CNCCC4(F)F)n3)cc2)CCO1` (single isomer, unassigned) [Compound 308], the IC50 in test [1] and in test [2] was 1 to 100 nM throughout.

Take `Cc1cc(-c2cc3nccnc3c(NC[C@H]3CNCCC3(F)F)n2)ccc1N1CCOCC1` [Compound 371, (R)—N-((4,4-difluoropiperidin-3-yl)methyl)-7-(3-methyl-4-morpholinophenyl)pyrido[4,3-b]pyrazin-5-amine]: the IC50 in test [1] and in test [2] was 1 to 100 nM throughout.

Take `CS(=O)(=O)N1CCO[C@H](CNc2nc(-c3ccc(N4CCNCC4)cc3)cc3nccnc23)C1` [Compound 462]: the figures for the 50% inhibitory concentration (IC50) in test [1] and in test [2] were 1 to 100 nM and 100 to 1000 nM, respectively.

Take `C[C@@H](O)C(=O)N1CCN(c2ccc(-c3cc4nccnc4c(NC[C@@H]4CNCCO4)n3)cc2)CC1` [Compound 406]: the results for the IC50 in test [1] and in test [2] were 1 to 100 nM and 100 to 1000 nM, respectively.

On to `c1cnc2c(NC[C@@H]3CNCCO3)nc(-c3ccc(N4CCCC4)cc3)cc2n1` [Compound 114], for which the IC50 in test [1] and in test [2] was 1 to 100 nM in each case.

In the case of `CN(C)c1ccc(-c2cc3nccnc3c(N3CC[C@@H](CO)C3)n2)cc1` [Compound 165], the values for the IC50 in test [1] and in test [2] were 100 to 1000 nM and 1 to 100 nM, respectively.

`COc1ccc(-c2cc3nccnc3c(NCCC(N)=O)n2)cc1F` [Compound 176]: the IC50 in test [1] and in test [2] was 100 to 1000 nM in each case.

In the case of `Clc1ccc(-c2cc3nccnc3c(NCC3CCCNC3)n2)cc1` (centres unmarked) [Compound 55], the values for the IC50 in test [1] and in test [2] were 1 to 100 nM and 100 to 1000 nM, respectively.

Turning to `O=C(CCO)N1CCN(c2ccc(-c3cc4nccnc4c(NC[C@@H]4CNCCO4)n3)cc2)CC1` [Compound 410], the IC50 in test [1] fell in the range of 1 to 100 nM; in test [2], 100 to 1000 nM.

Consider `CN(C)c1ccc(-c2cc3nccnc3c(N3CC[C@H](CO)C3)n2)cc1` [Compound 164], for which the IC50 in test [1] and in test [2] was 100 to 1000 nM in each case.

For the compound `O=C(C(F)F)N1CCO[C@H](CNc2nc(-c3ccc(N4CCOCC4)cc3)cc3nccnc23)C1` [Compound 323], the concentration for half-maximal inhibition (IC50) in test [1] and in test [2] was 1 to 100 nM throughout.

In the case of `Cn1ccc2cc(-c3cc4nccnc4c(NC[C@@H]4CNCCO4)n3)cnc21` [Compound 234], the concentration for half-maximal inhibition (IC50) in test [1] and in test [2] was 100 to 1000 nM each time.

With `NC(=O)N1CCC(c2ccc(-c3cc4nccnc4c(NC[C@@H]4CNCCO4)n3)cc2)CC1` [Compound 506], the IC50 in test [1] lay in the range of 1 to 100 nM; in test [2], 100 to 1000 nM.

For the compound `CN(C)C(=O)C1CCN(c2ccc(-c3cc4nccnc4c(NC[C@@H]4CNCCO4)n3)cc2)CC1` [Compound 270], the IC50 in test [1] is 1 to 100 nM; in test [2], 100 to 1000 nM.

For `CCN1CCN(c2ccc(-c3cc4nccnc4c(NC[C@@H]4CN(S(C)(=O)=O)CCO4)n3)cc2)CC1` [Compound 487], the IC50 in test [1] lay within 1 to 100 nM; in test [2], 100 to 1000 nM.

With `CNc1ccc(-c2cc3nccnc3c(NCC3CCCNC3)n2)cn1` (centres unmarked) [Compound 60], the IC50 in test [1] lay in the range of 1 to 100 nM; in test [2], 100 to 1000 nM.

Turning to `CC(C)C(=O)N1CCN(c2ccc(-c3cc4nccnc4c(NC[C@@H]4CNCCO4)n3)cc2)CC1` [Compound 405], the 50% inhibitory concentration (IC50) in test [1] and in test [2] was 1 to 100 nM each time.

Turning to `c1cnc2c(NC[C@@H]3CNCCO3)nc(-c3ccc(N4CCCOCC4)cc3)cc2n1` [Compound 218], the IC50 in test [1] and in test [2] was 1 to 100 nM in each case.

Take `C[C@@H]1CN(c2ccc(-c3cc4nccnc4c(NC[C@@H]4CNCCO4)n3)cc2F)C[C@H](C)O1` [Compound 247]: the IC50 was in the range of 100 to 1000 nM in test [1] and 1 to 100 nM in test [2].

With `FC(F)Oc1ccc(-c2cc3nccnc3c(NC[C@H]3CCCNC3)n2)cc1` [Compound 139], the IC50 in test [1] and in test [2] was 1 to 100 nM throughout.

`CC(=O)N1CCN(c2ccc(-c3cc4nccnc4c(NCC4CNCCC4(F)F)n3)cc2)CC1` (centres unmarked) [Compound 305]: the IC50 in test [1] and in test [2] was 1 to 100 nM throughout.

On to `Cc1cc(-c2cc3nccnc3c(NC[C@@H]3CNCCC3(F)F)n2)ccc1N1CCOCC1` [Compound 370, (S)—N-((4,4-difluoropiperidin-3-yl)methyl)-7-(3-methyl-4-morpholinophenyl) pyrido[4,3-b]pyrazin-5-amine], for which the half-maximal inhibitory concentration (IC50) in test [1] and in test [2] was 1 to 100 nM each time.

Turning to `O=C(C1CC(F)(F)C1)N1CCN(c2ccc(-c3cc4nccnc4c(NC[C@@H]4CNCCO4)n3)cc2)CC1` [Compound 432], the IC50 in test [1] and in test [2] was 1 to 100 nM in each case.

For `CCc1ccc(-c2cc3nccnc3c(NCC3CCCNC3)n2)cc1` (centres unmarked) [Compound 45], the IC50 in test [1] and in test [2] was 100 to 1000 nM in each case.

As for `Fc1cc(-c2cc3nccnc3c(NCC3CNCCS3)n2)ccc1N1CCOCC1` (centres unmarked) [Compound 240], the IC50 in test [1] and in test [2] was 1 to 100 nM throughout.

Turning to `CN(C)c1ccc(-c2cc3nccnc3c(NC[C@H]3CCCNC3)n2)cc1F` [Compound 142], the IC50 in test [1] and in test [2] was 1 to 100 nM in each case.

Regarding `CNS(=O)(=O)N1CCC(c2ccc(-c3cc4nccnc4c(NC[C@@H]4CNCCO4)n3)cc2)CC1` [Compound 498], the IC50 in test [1] and in test [2] was 1 to 100 nM each time.

For the compound `CC(=O)N1CCN(c2ccc(-c3cc4nccnc4c(NCC4CNCCC4(F)F)n3)cn2)CC1` (centres unmarked) [Compound 316], the IC50 in test [1] and in test [2] was 1 to 100 nM each time.

Turning to `O=C(CC1CC1)N1CCN(c2ccc(-c3cc4nccnc4c(NC[C@@H]4CNCCO4)n3)cc2)CC1` [Compound 403], the IC50 in test [1] was 1 to 100 nM; in test [2], 100 to 1000 nM.

On to `CN1CCN(c2ccc(-c3cc4nccnc4c(NCC4CNCCS4)n3)cc2)CC1` (centres unmarked) [Compound 241], for which the IC50 in test [1] is 1 to 100 nM; in test [2] it was 100 to 1000 nM.

In the case of `Cc1ccc(-c2cc3nccnc3c(NC[C@H]3CCCNC3)n2)cc1F` [Compound 41], the IC50 in test [1] was in the range of 1 to 100 nM; in test [2], 100 to 1000 nM.

With `c1cnc2c(NC[C@@H]3CNCCO3)nc(-c3ccc(N4CCCC4)nc3)cc2n1` [Compound 103], the IC50 lay within 1 to 100 nM in test [1] and 100 to 1000 nM in test [2].

For `O=C(C(F)F)N1CCN(c2ccc(-c3cc4nccnc4c(NC[C@@H]4CNCCO4)n3)cc2)CC1` [Compound 407], the half-inhibitory concentration (IC50) in test [1] and in test [2] was 1 to 100 nM in each case.

Take `CC(C)Oc1ccc(-c2cc3nccnc3c(NCC3CNCCC3(F)F)n2)cc1F` (centres unmarked) [Compound 297]: the IC50 in test [1] and in test [2] was 1 to 100 nM each time.

For `O=C(CO)N1CCN(c2ccc(-c3cc4nccnc4c(NC[C@@H]4CNCCO4)n3)cc2)CC1` [Compound 272], the half-maximal inhibitory concentration (IC50) in test [1] and in test [2] was 1 to 100 nM throughout.

`CN1CCN(c2ccc(-c3cc4nccnc4c(NCCCN)n3)cc2)CC1` [Compound 186]: the IC50 in test [1] was in the range of 1 to 100 nM; in test [2] it was 100 to 1000 nM.

As for `CCS(=O)(=O)N1CCC(c2ccc(-c3cc4nccnc4c(NC[C@@H]4CNCCO4)n3)cc2)CC1` [Compound 446], the IC50 in test [1] and in test [2] was 1 to 100 nM throughout.

In the case of `FC(F)(F)Oc1ccc(-c2cc3nccnc3c(NCC3CCCNC3)n2)cc1` (centres unmarked) [Compound 54], the IC50 lay within 1 to 100 nM in test [1] and 100 to 1000 nM in test [2].

Consider `CN1CCN(c2ccc(-c3cc4nccnc4c(NCC4(F)CCCNC4)n3)cc2)CC1` (centres unmarked) [Compound 253], for which the IC50 in test [1] was 1 to 100 nM; in test [2] it was 100 to 1000 nM.

Consider `CN(C)c1ccc(-c2cc3nccnc3c(NC[C@@H]3CN(C(=O)C(F)F)CCO3)n2)cc1` [Compound 455], for which the IC50 in test [1] and in test [2] was 1 to 100 nM throughout.

On to `CCS(=O)(=O)N1CCN(c2ccc(-c3cc4nccnc4c(NCC4CNCCC4(F)F)n3)cc2)CC1` (centres unmarked) [Compound 445], for which the IC50 in test [1] and in test [2] was 1 to 100 nM throughout.

Consider `FC1(F)CCNCC1CNc1nc(-c2ccc(N3CCOCC3)c(Cl)c2)cc2nccnc12` (centres unmarked) [Compound 205], for which the IC50 in test [1] and in test [2] was 1 to 100 nM each time.

For `CN(c1ccc(-c2cc3nccnc3c(NCC3CNCCC3(F)F)n2)cc1)S(C)(=O)=O` (centres unmarked) [Compound 313], the half-inhibitory concentration (IC50) in test [1] and in test [2] was 1 to 100 nM each time.

Consider `CN(C)S(=O)(=O)N1CCC(c2ccc(-c3cc4nccnc4c(NC[C@@H]4CNCCO4)n3)cc2)CC1` [Compound 499], for which the IC50 in test [1] and in test [2] was 1 to 100 nM in each case.

For `NCC1CCN(c2nc(-c3ccc(N4CCOCC4)cc3)cc3nccnc23)CC1` [Compound 108], the IC50 in test [1] and in test [2] was 100 to 1000 nM throughout.

As to `Fc1cc(-c2cc3nccnc3c(NC[C@@H]3CCCNC3)n2)ccc1N1CCOCC1` [Compound 121], the results for the IC50 in test [1] and in test [2] were 1 to 100 nM and 100 to 1000 nM, respectively.

Take `CN(c1ccc(-c2cc3nccnc3c(NC[C@H]3CNCCC3(F)F)n2)cc1)S(C)(=O)=O` [Compound 395, (R)—N-(4-(5-((4,4-difluoropiperidin-3-yl)methylamino)pyrido[4,3-b]pyrazin-7-yl)phenyl)-N-methylmethanesulfonamide]: the IC50 in test [1] lay within 100 to 1000 nM; in test [2] it was 1 to 100 nM.

Regarding `CN(C)C(=O)c1ccc(-c2cc3nccnc3c(NCC3CNCCC3(F)F)n2)cc1` (centres unmarked) [Compound 304], the IC50 is 100 to 1000 nM in test [1] and 1 to 100 nM in test [2].

`CC(C)(C)c1ccc(-c2cc3nccnc3c(NCC3CCCNC3)n2)cc1` (centres unmarked) [Compound 47]: the IC50 in test [1] lay in the range of 1 to 100 nM; in test [2], 100 to 1000 nM.

In the case of `CCC(=O)N1CCC(c2ccc(-c3cc4nccnc4c(NC[C@@H]4CNCCO4)n3)cc2)CC1` [Compound 504], the IC50 in test [1] and in test [2] was 1 to 100 nM in each case.

Regarding `c1cnc2c(N3CCC4(CCCNC4)C3)nc(-c3ccc(N4CCOCC4)nc3)cc2n1` (centres unmarked) [Compound 130], the IC50 in test [1] and in test [2] was 1 to 100 nM in each case.
